Here are results for five molecules from ChEMBL document CHEMBL4421733, “Inhibitors of eya2” (2012).

Calls of active or inactive are those of the source. The calls are words filed in the database; no cut-off is given here.

Experiment [1] deals with T1, Protein phosphatase EYA2 (Homo sapiens) (UniProt O00167).
T1 sequence (whole entry): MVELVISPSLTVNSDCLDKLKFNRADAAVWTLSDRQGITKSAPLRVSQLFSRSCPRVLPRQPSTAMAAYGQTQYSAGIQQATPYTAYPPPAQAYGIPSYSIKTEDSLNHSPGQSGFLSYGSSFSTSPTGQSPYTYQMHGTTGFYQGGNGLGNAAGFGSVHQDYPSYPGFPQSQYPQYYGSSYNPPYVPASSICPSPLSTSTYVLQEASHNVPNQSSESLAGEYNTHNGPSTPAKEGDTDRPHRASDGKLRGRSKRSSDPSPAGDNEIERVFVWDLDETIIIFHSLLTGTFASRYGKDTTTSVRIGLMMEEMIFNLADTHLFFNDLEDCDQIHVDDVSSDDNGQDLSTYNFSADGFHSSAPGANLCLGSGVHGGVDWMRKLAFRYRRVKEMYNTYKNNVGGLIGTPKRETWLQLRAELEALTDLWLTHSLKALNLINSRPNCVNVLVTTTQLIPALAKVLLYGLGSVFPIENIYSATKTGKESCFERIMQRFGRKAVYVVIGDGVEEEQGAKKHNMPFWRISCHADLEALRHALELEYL
Briefly: Inhibition of GST-fused human Eya2 ED (253 to 538 residues) expressed in Escherichia coli at […] pre-incubated for 10 mins followed by OMFP substrate addition and further incubated for 30 mins by fluorescence based assay.

Experiment [2] is described as follows: Binding affinity to Mg2+ ion in acetonitrile assessed as induction of shift in the maximum absorbance wavelength at 25 uM by UV spectroscopy.
Experiment [3] can be described thus: Binding affinity to Mg2+ ion at 25 uM in aqueous buffers by UV spectroscopy.
Experiment [4] in a line: Binding affinity to Mg2+ ion in acetonitrile assessed as induction of shift in the maximum absorbance wavelength by UV spectroscopy.
Experiment [5] in a line: Binding affinity to Na+ ion in acetonitrile at 12.5 uM assessed as induction of shift in the maximum absorbance wavelength by UV spectroscopy.
A short description of experiment [6]: Binding affinity to Mg2+ ion assessed as induction of chemical shift at 5 mM in presence of in presence of 25 mM magnesium 1H-NMR spectroscopy.
The nature of experiment [7]: Binding affinity to Na+ ion assessed as induction of chemical shift at 5 mM by 1H-NMR spectroscopy.

Take `c1cnc2c(c1)ccc1cccnc12`: the inhibition entry in experiment [1] was “inactive”.

For `N[C@@H](Cc1ccccc1)C(=O)O`, the inhibition result in experiment [1] is “inactive”. As for `Cc1ccccc1C(=O)N/N=C/c1ccc(Sc2ccccn2)o1`, the outcome in experiment [2] was Active. `O=C(N/N=C/c1ccc(Sc2ccccn2)o1)c1cccc(F)c1`: the outcome in experiment [3], in experiment [5] and in experiment [7] was inactive. For the same molecule, the Activity result was “Dose-dependent effect” in experiment [4] and -0.6 ppm in experiment [6].

As for `C=C1[C@@H](O)[C@@H]2O[C@@]3(CC[C@H](/C=C/[C@@H](C)[C@@H]4CC(C)=C[C@@]5(O[C@H](C[C@@](C)(O)C(=O)O)CC[C@H]5O)O4)O3)CC[C@H]2O[C@@H]1[C@@H](O)C[C@H](C)[C@H]1O[C@@]2(CCCCO2)CC[C@H]1C`, the inhibition entry in experiment [1] was “inactive”.
